# Measured values as given in patent US20070270403A1 (priority 2003, published 2007).
# Where two headings read alike, the source gives them in different places.
# Legend:
# [1] = independent of the rate of metabolism; cited from earlier work
# DA release in NAcc = experiment: In vivo microvoltammetry, DA release in NAcc (clozapine studies); design: species or system Sprague-Dawley Rattus Norvegicus; conditions: Acute, clozapine 20 mg/kg i.p. + cocaine 10 mg/kg i.p.
# Description: (§1) There is an increasing awareness that a psychosis, similar to that of schizophrenic psychosis, can be derived from cocaine addiction. […] Release mechanisms for monoamines, were determined by using a depolarization blocker, gamma-butyrolactone (γBL). […] Acute and Subacute studies were performed for each treatment group.
# (§2) The stereotaxic equipment was purchased from David Kopf Instruments, Tujunga, Calif. A Ag/AgCl reference electrode was placed in contact with dura, 7 mm anteriorally and contralaterally to the indicator microelectrode. A stainless steel auxiliary microelectrode was placed in contact with dura. BRODERICK PROBE® microelectrodes were manufactured on site.
# (§3) In vivo microvoltammetric studies on conscious Sprague-Dawley laboratory rats were begun nine to fifteen days after the aseptic surgical operations were performed. On each experimental day, the animal was placed in a Plexiglas-copper faradaic chamber. The three-microelectrode assembly, enclosed within the animal's prosthetic acrylic cap, was connected to a CV37 detector by means of a mercury commutator (Br. Res. Instr., Princeton, N.J.), a flexible cable, and a mating connector (BJM Electronics, Staten Island, N.Y.). The CV37 detector was electrically connected to a Minigard surge suppresser (Jefferson Electric, Magnetek, N.Y.) which was then connected to an electrical ground in isolation. […] Each animal was used as its own control. Changes in synaptic concentrations of DA and 5-HT are presented as percent change (% of control) in order to minimize normal between-animal variations. […] In vivo microvoltammetric scans were recorded in sec and repeated every five min for a period of 2 hrs before each treatment and a period of two hrs after each treatment.
# (§4) Potentials were applied with a CV37 detector (BAS, West Lafayette, Ind.). Potentials were applied from −0.2V to +0.4V with respect to a Ag/AgCl (1M NaCl) electrode, at a scan rate of 10 mV/sec at time constants of 5 and 1 tau. One scan was completed in 60 sec. Non-faradaic charging current was eliminated in the first 25 sec.
# (§5) Calibration curves were determined experimentally, in vitro, in a freshly prepared deoxygenated physiological saline-phosphate buffer solution (0.01 M, pH=7.4). We use ultra pure Nitrogen (N2) (T. W. Smith Corp., Bklyn, N.Y.) to deoxygenate the buffer solution. […] Calibration studies were also performed in freshly prepared deoxygenated buffer solutions containing phosphotidylethanolamine (PEA), combined with bovine serum albumin (BSA) (Sigma Aldrich, St. Louis, Mo.), a solution which closely mimics brain constituents. […] Detection limits for basal synaptic concentrations of DA and 5-HT in NAcc were 12 nM and 2 nM respectively.
# 5-HT release in NAcc = experiment: In vivo microvoltammetry, 5-HT release in NAcc (clozapine studies); design: species or system Sprague-Dawley Rattus Norvegicus; conditions: Acute, clozapine 20 mg/kg i.p. + cocaine 10 mg/kg i.p.
# Description: as §1, §2, §3, §4, §5
# [2] = tested on: Sprague-Dawley laboratory rats; experiment: Locomotor activity (ambulations) by infrared photobeams (clozapine studies); format: in vivo, Sprague-Dawley Rattus Norvegicus; conditions: Acute, clozapine 20 mg/kg i.p. + cocaine 10 mg/kg i.p.
# Excerpt: Locomotor activity (ambulation) was monitored with infrared photobeams at the same time as DA and 5-HT release in NAcc was detected with BRODERICK PROBES® in conjunction with In Vivo Microvoltammetry. The chamber was faradaic, covered with copper to refract possible electrical artifacts (dimensions: 24 in (width) by 18 in (depth) by 23.5 in (height)). A 16 by 16 array of these infrared photobeams, were held in place by an aluminum frame which was situated ¾ in above the Plexiglas floor of the chamber to detect locomotor activity. Photobeams were sampled by a Pentium computer to define the x-y position of the animal within a 1.5 in resolution every 100 msec. When an x-y position was calculated, it was used to define the frequency of locomotor activity in counts. The locomotor activity system is a modified version of an Activity Pattern Monitor (APM) (San Diego Instruments, San Diego, Calif.). Behavioral data is presented in absolute frequency, i.e., number of counts recorded.
# The first hr pre-drug allowed exploratory behavior. Exploratory behavior is defined as open-field behavior of ambulations (forward locomotion) wherein animals respond to the stimuli of a novel environment with high frequency of behavioral counts. The second hr pre-drug allowed the animal to become habituated before treatment.
# In the Acute studies, each drug was administered at the end of the habituation period. Baseline (control) values were taken every five min for the last thirty min of the habituation period at which time drug injection(s) took place. Electrochemical recordings for DA and 5-HT release in NAcc, were continued for two hrs; at the same time, locomotor behavior continued to be monitored and recorded with infrared photobeams. At the end of the 2 hr drug(s) study, animals were then placed back in their home cages.
# In the Subacute studies, which took place twenty-four hrs later, the animals were again placed in the faradaic behavioral chamber and no further drug was administered. Recordings of separate electrochemical signals for DA and 5-HT release in NAcc, were taken for one hr; at the same time, locomotor behavior was monitored and recorded with infrared photobeams.
# Neurochemical and behavioral data, derived from the last thirty minutes of the habituation period, provided the baseline data. […] Where appropriate, data points in the time course were subjected to 95% Confidence Limits (C.L.).
# [3] = cited from earlier work
# [4] = cited from earlier work; remark: listed apart in the source
smiles,measurement,setting,value
Cc1nc2n(c(=O)c1CCN1CCC(c3noc4cc(F)ccc34)CC1)CCCC2O (centres unmarked) [9-hydroxyrisperidone],Time for which the metabolite is active,[1],22 h
"CN1CCN(C2=Nc3cc(Cl)ccc3Nc3ccccc32)CC1 [Clozapine, clozapine]",Average reduction of cocaine-induced increases in DA release in NAcc,DA release in NAcc; first hr of study,40%
same,Average reduction of cocaine-induced increases in DA release in NAcc,DA release in NAcc; second hr of study,50%
same,Average reduction of cocaine-induced increases in 5-HT release in NAcc,5-HT release in NAcc; first hr of study,138%
same,Average reduction of cocaine-induced increases in 5-HT release in NAcc,5-HT release in NAcc; second hr of study,113%
same,Average reduction of locomotor activity (ambulation counts) produced by cocaine,[2]; first half hr,500 counts
same,Average reduction of locomotor activity (ambulation counts) produced by cocaine,[2]; next hr of study,150 counts
same,half-life,[3]; at higher doses,4 to 66 h
same,half-life,[3]; at lower doses,8 h
COC(=O)[C@H]1[C@@H](OC(=O)c2ccccc2)C[C@@H]2CC[C@H]1N2 [norcocaine],Detection in brain,[4]; after i.v. cocaine (20-40 mg/kg),not detected at all
CN1[C@H]2CC[C@@H]1[C@@H](C(=O)O)[C@@H](OC(=O)c1ccccc1)C2 [benzoylecgonine],elimination half-life,"[4]; after bolus injections (e.g., 14.7 umol/kg)",0.667 to 0.733 h
